Molecules are shown by their SMILES. A value given as a limit tells only on which side of the number the result lay.

The subject of experiment [1] is DLD1 NRF2-WT. As to the kind of experiment: drug sensitivity score (DSS) cytotoxicity (DSS score); higher = more toxic; extreme values may be limits of the assay. Particulars: 72 h; CellTox Green cytotoxicity. The essentials:
(§1)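 Isogenic DLD1 colorectal cancer cells, either NRF2 wild-type or CRISPR gain-of-function, were grown in DMEM with 10% FBS. They were exposed in 384-well plates to library compounds at 5 concentrations spanning a 10,000-fold range. After 72 h, cytotoxicity was read by CellTox Green on a Pherastar FS reader and normalised to vehicle wells and 100-μM positive-control wells. TC50 and drug sensitivity score (a normalised area under the curve) came from logistic dose-response fits.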

For experiment [2], the system named is DLD1 NRF2-GOF. The description is as above. As to conditions: 72 h; CellTox Green cytotoxicity. The procedure, abridged:
as §1

Experiment [3] concerns DLD1 NRF2-WT. Kind of experiment: TC50 cytotoxicity; higher = less toxic. Particulars: 72 h; CellTox Green cytotoxicity. The procedure, abridged: as §1
Experiment [4] has as its system DLD1 NRF2-GOF. As to the kind of experiment: TC50 cytotoxicity; higher = less toxic. Particulars: 72 h; CellTox Green cytotoxicity. The procedure, abridged:
as §1

The test system of experiment [5] is DLD1 NRF2-WT. Particulars: 72 h; CellTiter-Glo viability. The procedure, abridged: (§2)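 DLD1 colorectal cancer cells, an isogenic pair either NRF2 wild-type or carrying a CRISPR gain-of-function, were cultured in DMEM with 10% FBS and treated in 384-well plates with library compounds at 5 concentrations across a 10,000-fold range. CellTiter-Glo viability was read on a Pherastar FS reader after 72 h and normalised to vehicle wells and 100-μM positive-control wells. Four-parameter logistic dose-response fits were applied. EC50 and drug sensitivity score, a normalised area under the curve, were taken from these fits.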
In general terms: In ATP-based viability assays light output follows the ATP content of the culture.

The test system of experiment [6] is DLD1 NRF2-GOF. Particulars: 72 h; CellTiter-Glo viability. The procedure, abridged:
as §2

Experiment [7] concerns DLD1 NRF2-WT. Kind of experiment: drug sensitivity score (DSS) viability (DSS score); higher = more sensitive; extreme values may be limits of the assay. Particulars: 72 h; CellTiter-Glo viability. The procedure, abridged:
as §2

In experiment [8] the test system is DLD1 NRF2-GOF. The description is as above. Particulars: 72 h; CellTiter-Glo viability. The procedure, abridged: as §2

Consider `CN(C)C[C@@H]1CCn2cc(c3ccccc32)C2=C(C(=O)NC2=O)c2cn(c3ccccc23)CCO1` [Ruboxistaurin], for which the drug sensitivity score with DLD1 NRF2-WT [1] is 0; in the experiment on DLD1 NRF2-GOF [2] it was 0.2; in the experiment on DLD1 NRF2-WT [7], 5.1; in the experiment on DLD1 NRF2-GOF [8], 5. Also, the TC50 cytotoxicity in the experiment with DLD1 NRF2-WT [3] and with DLD1 NRF2-GOF [4] was above 10000 nM in each case. Besides, the EC50 viability in the experiment with DLD1 NRF2-WT [5] worked out at 2080 nM; with DLD1 NRF2-GOF [6], 2000 nM.

Take `CC(C)(C)c1cnc(CSc2cnc(NC(=O)C3CCNCC3)s2)o1` [SNS-032]: the drug sensitivity score in the experiment with DLD1 NRF2-WT [1] came to 0.8; in the experiment with DLD1 NRF2-GOF [2], 0; in the experiment with DLD1 NRF2-WT [7] it was 23.1; in the experiment with DLD1 NRF2-GOF [8], 17.5. Moreover, the TC50 cytotoxicity in the experiment on DLD1 NRF2-WT [3] and in the experiment on DLD1 NRF2-GOF [4] was above 10000 nM throughout. Further, the EC50 viability with DLD1 NRF2-WT [5] worked out at 98.4 nM; with DLD1 NRF2-GOF [6] it was 223 nM.

On to `CN1CCN(CCOc2cc(OC3CCOCC3)c3c(Nc4c(Cl)ccc5c4OCO5)ncnc3c2)CC1` [Saracatinib], for which the drug sensitivity score in the experiment on DLD1 NRF2-WT [1] amounted to 0.7; in the experiment with DLD1 NRF2-GOF [2] it was 0.1; in the experiment with DLD1 NRF2-WT [7], 2.4; with DLD1 NRF2-GOF [8] it was 0.3. The TC50 cytotoxicity with DLD1 NRF2-WT [3] and in the experiment on DLD1 NRF2-GOF [4] was above 10000 nM in each case. For the same molecule, the EC50 viability in the experiment on DLD1 NRF2-WT [5] is 2480 nM; in the experiment on DLD1 NRF2-GOF [6] it was above 10000 nM.

Regarding `O=C(/C=C\n1cnc(-c2cc(C(F)(F)F)cc(C(F)(F)F)c2)n1)NNc1cnccn1` [Selinexor], the drug sensitivity score came to 1.5 in the experiment on DLD1 NRF2-WT [1], 2.5 in the experiment with DLD1 NRF2-GOF [2], 16.7 in the experiment on DLD1 NRF2-WT [7] and 15.5 in the experiment with DLD1 NRF2-GOF [8]. The TC50 cytotoxicity in the experiment with DLD1 NRF2-WT [3] and in the experiment on DLD1 NRF2-GOF [4] was above 10000 nM in each case. In addition, the EC50 viability in the experiment with DLD1 NRF2-WT [5] was found to be 202 nM; in the experiment on DLD1 NRF2-GOF [6], 323 nM.

For the molecule `CN1CCN(C(=O)c2ccc3cc(CCNc4ncnc5ccc(C#N)cc45)ccc3c2)CC1` [Senexin B], the drug sensitivity score amounted to 0 with DLD1 NRF2-WT [1], 0 in the experiment with DLD1 NRF2-GOF [2], 3.5 with DLD1 NRF2-WT [7] and 3.6 with DLD1 NRF2-GOF [8]. The TC50 cytotoxicity with DLD1 NRF2-WT [3] and in the experiment with DLD1 NRF2-GOF [4] was above 1000 nM in each case. For the same molecule, the EC50 viability stood at 102 nM with DLD1 NRF2-WT [5] and 114 nM in the experiment with DLD1 NRF2-GOF [6].

In the case of `COCC[n+]1c2c(n(Cc3cnccn3)c1C)C(=O)c1ccccc1C2=O` [Sepantronium bromide], the drug sensitivity score in the experiment with DLD1 NRF2-WT [1] came to 21.7; in the experiment on DLD1 NRF2-GOF [2], 30.9; in the experiment on DLD1 NRF2-WT [7] it was 38.7; in the experiment on DLD1 NRF2-GOF [8] it was 41.8. Also, the values for the TC50 cytotoxicity in the experiment on DLD1 NRF2-WT [3] and in the experiment with DLD1 NRF2-GOF [4] were 28.7 nM and 27.5 nM, respectively. Besides, the results for the EC50 viability in the experiment on DLD1 NRF2-WT [5] and in the experiment with DLD1 NRF2-GOF [6] were 6.8 nM and 3.7 nM, respectively.

`O=C(O)c1ccc2c(c1)nc(Nc1cccc(Cl)c1)c1ccncc12` [Silmitasertib]: the drug sensitivity score is 0.3 with DLD1 NRF2-WT [1], 0 in the experiment on DLD1 NRF2-GOF [2], 2.1 in the experiment on DLD1 NRF2-WT [7] and 2.8 in the experiment with DLD1 NRF2-GOF [8]. For the same molecule, the TC50 cytotoxicity in the experiment with DLD1 NRF2-WT [3] and with DLD1 NRF2-GOF [4] was above 10000 nM in each case. Also, the EC50 viability in the experiment with DLD1 NRF2-WT [5] came out at 3600 nM; in the experiment on DLD1 NRF2-GOF [6], 1520 nM.

Turning to `CN1CCN(c2nc(C3=C(c4c[nH]c5ccccc45)C(=O)NC3=O)c3ccccc3n2)CC1` [Sotrastaurin], the drug sensitivity score in the experiment on DLD1 NRF2-WT [1] amounted to 0; in the experiment on DLD1 NRF2-GOF [2] it was 0; in the experiment with DLD1 NRF2-WT [7], 1.2; with DLD1 NRF2-GOF [8], 0. For the same molecule, the TC50 cytotoxicity in the experiment with DLD1 NRF2-WT [3] and in the experiment on DLD1 NRF2-GOF [4] was above 10000 nM throughout. The EC50 viability with DLD1 NRF2-WT [5] and with DLD1 NRF2-GOF [6] was above 10000 nM in each case.

For the molecule `C=CC(=O)Nc1cccc(Nc2nc(Nc3ccc(OCCOC)cc3)ncc2F)c1` [Spebrutinib], the drug sensitivity score in the experiment with DLD1 NRF2-WT [1] is 0; in the experiment with DLD1 NRF2-GOF [2] it was 0; in the experiment with DLD1 NRF2-WT [7], 3.2; in the experiment with DLD1 NRF2-GOF [8], 6.5. Also, the TC50 cytotoxicity with DLD1 NRF2-WT [3] and with DLD1 NRF2-GOF [4] was above 1000 nM throughout. For the same molecule, the EC50 viability in the experiment with DLD1 NRF2-WT [5] is 82.2 nM; in the experiment on DLD1 NRF2-GOF [6], 39.6 nM.

As for `CCN(CC)CCNC(=O)c1c(C)[nH]c(/C=C2\C(=O)Nc3ccc(F)cc32)c1C` [Sunitinib], the drug sensitivity score was found to be 0 in the experiment on DLD1 NRF2-WT [1], 0 in the experiment on DLD1 NRF2-GOF [2], 1.9 in the experiment on DLD1 NRF2-WT [7] and 2.8 in the experiment on DLD1 NRF2-GOF [8]. Further, the TC50 cytotoxicity with DLD1 NRF2-WT [3] and in the experiment with DLD1 NRF2-GOF [4] was above 1000 nM throughout. Moreover, the EC50 viability in the experiment with DLD1 NRF2-WT [5] was determined as 381 nM; in the experiment with DLD1 NRF2-GOF [6], 229 nM.

These data come from the supplement of paper PMC7600603.
